Results published in the supplement of paper PMC10307832.

How the values were obtained:
Assay in all cases: relative viability (nuclei count vs DMSO), 5 days (fraction); higher = more cells survive
[1] = compound: CS(=O)(=O)c1ccc(-c2cnc(N)c(C(=O)Nc3ccccc3)n2)cc1 [VE-821] + CCNC(=O)c1noc(-c2cc(C(C)C)c(O)cc2O)c1-c1ccc(CN2CCOCC2)cc1 [Luminespib] (partner 0.01 µM)
Summary of the method: (§1)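 Relative viability is defined as nuclei in treated wells over nuclei in vehicle wells. Duplicate plates were run and medians reported. Lung cancer cell lines in 1536-well plates were dosed by pin tool one day after seeding, with one drug or with a fixed anchor-drug dose plus five library-drug doses (not always all listed) in √10 steps, and nuclei were counted after 5 days.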

[2] = compound: CS(=O)(=O)c1ccc(-c2cnc(N)c(C(=O)Nc3ccccc3)n2)cc1 [VE-821] + Nc1nc2[nH]cc(CCc3ccc(C(=O)N[C@@H](CCC(=O)O)C(=O)O)cc3)c2c(=O)[nH]1 [Pemetrexed] (partner 0.2 µM)
Summary of the method: as §1

[3] = compound: CS(=O)(=O)c1ccc(C(=O)Nc2ccc(Cl)c(-c3ccccn3)c2)c(Cl)c1 [Vismodegib] + COc1cc2c(Oc3ccc(NC(=O)C4(C(=O)Nc5ccc(F)cc5)CC4)cc3F)ccnc2cc1OCCCN1CCOCC1 [Foretinib] (partner 0.25 µM)
Summary of the method: as §1

[4] = compound: N#CC[C@H](C1CCCC1)n1cc(-c2ncnc3[nH]ccc23)cn1 [Ruxolitinib] + COc1cccc2cc(-c3nc([C@H]4CC[C@H](C(=O)O)CC4)n4ncnc(N)c34)[nH]c12 [OSI-027] (partner 0.5 µM)
Summary of the method: as §1

| Cell Line | relative viability ([1]; first compound 0.08 µM) | relative viability ([1]; first compound 0.253 µM) | relative viability ([1]; first compound 0.8 µM) | relative viability ([1]; first compound 2.53 µM) | relative viability ([1]; first compound 8 µM) | relative viability ([2]; first compound 0.08 µM) | relative viability ([2]; first compound 0.253 µM) | relative viability ([2]; first compound 0.8 µM) | relative viability ([2]; first compound 2.53 µM) | relative viability ([2]; first compound 8 µM) | relative viability ([3]; first compound 0.08 µM) | relative viability ([3]; first compound 0.253 µM) | relative viability ([3]; first compound 0.8 µM) | relative viability ([3]; first compound 2.53 µM) | relative viability ([3]; first compound 8 µM) | relative viability ([4]; first compound 0.08 µM) | relative viability ([4]; first compound 0.253 µM) | relative viability ([4]; first compound 0.8 µM) | relative viability ([4]; first compound 2.53 µM) | relative viability ([4]; first compound 8 µM) |
| --- | --- | --- | --- | --- | --- | --- | --- | --- | --- | --- | --- | --- | --- | --- | --- | --- | --- | --- | --- | --- |
| NCI-H23 | 0.202 | 0.223 | 0.214 | 0.236 | 0.213 | 0.919 | 0.838 | 0.55 | 0.463 | 0.272 | 0.925 | 0.899 | 1.01 | 0.593 | 1.2 | 0.743 | 0.617 | 0.696 | 0.496 | 0.522 |
| H3255 | 0.903 | 0.782 | 0.78 | 0.915 | 0.973 | 0.6 | 0.583 | 0.61 | 0.604 | 0.517 | 0.865 | 0.866 | 0.822 | 0.888 | 0.878 | 0.371 | 0.492 | 0.624 | 0.591 | 0.585 |
| NCI-H1651 | 0.907 | 0.819 | 0.63 | 1.16 | 0.679 | 0.576 | 0.616 | 0.625 | 0.554 | 0.545 | 0.818 | 0.604 | 0.782 | 0.739 | 0.781 | 0.774 | 0.718 | 0.842 | 0.659 | 0.723 |
| NCI-H1734 | 0.199 | 0.197 | 0.208 | 0.165 | 0.193 | 0.413 | 0.391 | 0.374 | 0.351 | 0.297 | 0.875 | 0.869 | 0.876 | 0.772 | 0.946 | 0.586 | 0.491 | 0.671 | 0.417 | 0.637 |
| CAL-12T | 0.655 | 0.363 | 0.4 | 0.327 | 0.137 | 1.22 | 1.14 | 1.04 | 1.1 | 0.759 | 1.08 | 1.06 | 1.05 | 1.06 | 1.16 | 0.598 | 0.623 | 0.812 | 0.524 | 0.442 |
| NCI-H1993 | 1.1 | 0.857 | 0.67 | 0.655 | 0.704 | 0.6 | 0.596 | 0.35 | 0.638 | 0.601 | 0.863 | 0.654 | 0.782 | 0.773 | 0.675 | 0.535 | 0.549 | 0.538 | 0.584 | 0.541 |
| NCI-H1755 | 0.514 | 0.344 | 0.427 | 0.468 | 0.201 | 0.464 | 0.655 | 0.431 | 0.361 | 0.247 | 0.894 | 0.91 | 0.947 | 0.96 | 0.913 | 0.748 | 0.732 | 0.683 | 0.606 | 0.566 |
